The assay addresses T1, telomerase enzyme (Homo sapiens, UniProt O14746).
T1 construct: telomerase enzyme diluted in a buffer
Description: Flash Plate-based telomerase activity assay. The assay is classed as biochemical. As to conditions: telomerase inhibition; two hours of incubation at 37°; Flash Plate readout, Sigma Plot fit. The method, then:
The telomerase activity of compounds of the invention have been evaluated using a Flash Plate-based assay.
Briefly the assay mixture is constituted of: • telomerase enzyme diluted in a buffer, the composition of which has been selected to maintain the enzyme activity stable along the duration of the assay. • dNTPs, deoxynucleotides 5′-triphosphate. • biotinylated oligo as primer. • increasing concentrations of test compounds/positive control.
After two hours of incubation at 37° degrees the telomeric repeats added are evaluated by hybridization in solution with a 3′-labeled short oligonucleotide probe.
The extent of hybridization is then quantitated by transferring the reaction mixture in a streptavidin-coated flash plate, where the binding between biotin and streptavidin occurs.
The telomerase activity is proportional to the radioactivity measured and the inhibitory activity of the compounds is evaluated as IC50 using the Sigma Plot fit program.
With the above-described method IC50 values of the compounds of the present invention were determined.
T1 sequence (O14746 whole entry): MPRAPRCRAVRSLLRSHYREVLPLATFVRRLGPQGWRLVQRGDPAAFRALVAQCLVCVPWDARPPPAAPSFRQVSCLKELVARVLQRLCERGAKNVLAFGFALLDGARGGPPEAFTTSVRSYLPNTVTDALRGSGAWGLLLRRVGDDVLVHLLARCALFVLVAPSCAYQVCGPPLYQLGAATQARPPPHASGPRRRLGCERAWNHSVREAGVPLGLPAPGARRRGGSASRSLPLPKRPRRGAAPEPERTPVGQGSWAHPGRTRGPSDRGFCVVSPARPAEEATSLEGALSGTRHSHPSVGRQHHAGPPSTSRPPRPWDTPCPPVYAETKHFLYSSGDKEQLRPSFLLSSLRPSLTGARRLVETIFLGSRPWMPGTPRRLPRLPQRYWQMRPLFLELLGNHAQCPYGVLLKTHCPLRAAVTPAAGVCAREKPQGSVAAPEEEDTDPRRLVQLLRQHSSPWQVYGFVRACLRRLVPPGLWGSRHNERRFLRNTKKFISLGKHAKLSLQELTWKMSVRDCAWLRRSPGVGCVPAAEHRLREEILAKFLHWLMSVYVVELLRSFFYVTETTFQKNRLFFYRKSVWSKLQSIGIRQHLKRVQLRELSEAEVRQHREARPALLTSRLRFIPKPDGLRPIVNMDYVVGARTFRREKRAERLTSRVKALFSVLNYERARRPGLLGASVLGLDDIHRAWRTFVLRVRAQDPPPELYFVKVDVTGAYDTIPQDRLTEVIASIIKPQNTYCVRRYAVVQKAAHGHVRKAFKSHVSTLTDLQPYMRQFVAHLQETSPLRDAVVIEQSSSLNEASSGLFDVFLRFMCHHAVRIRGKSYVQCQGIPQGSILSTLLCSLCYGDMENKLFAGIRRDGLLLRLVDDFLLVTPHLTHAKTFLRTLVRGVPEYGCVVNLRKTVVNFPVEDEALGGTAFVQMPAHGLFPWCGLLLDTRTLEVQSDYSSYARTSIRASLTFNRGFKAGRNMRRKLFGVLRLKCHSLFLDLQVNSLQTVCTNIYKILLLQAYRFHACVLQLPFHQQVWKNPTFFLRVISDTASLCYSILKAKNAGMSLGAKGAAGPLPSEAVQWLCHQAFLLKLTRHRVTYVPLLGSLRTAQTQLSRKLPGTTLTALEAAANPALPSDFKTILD
`Cc1nc(N2CCN(c3ccccn3)CC2)nc2c1ccc(=O)n2-c1ccc(C(=O)NCc2ccco2)cc1` [Compound 24, N-(2-furylmethyl)-4-(4-methyl-7-oxo-2-[4-(2-pyridinyl)-1-piperazinyl]pyrido[2,3-d]pyrimidin-8(7H)-yl)benzamide] showed an IC50 of 3.8 µM.

`Cc1nc(N2CCN(c3ncccn3)CC2)nc2c1ccc(=O)n2-c1ccc(C(=O)NCc2cccc3ccccc23)cc1` [Compound 32, 4-(4-methyl-7-oxo-2-[4-(2-pyrimidinyl)-1-piperazinyl]pyrido[2,3-d]pyrimidin-8(7H)-yl)-N-(1-naphthylmethyl)benzamide] displayed an IC50 of 1.25 µM.

`Cc1nc(N2CCc3ccccc3C2)nc2c1ccc(=O)n2-c1ccc(C(=O)NC2CCCCC2)cc1` [Compound 39, N-cyclohexyl-4-(2-(3,4-dihydro-2(1H)-isoquinolinyl)-4-methyl-7-oxopyrido[2,3-d]pyrimidin-8(7H)-yl)benzamide] gave an IC50 of 1.4 µM.

The compound `Cc1nc(N2CCN(c3ccc(F)cc3)CC2)nc2c1ccc(=O)n2-c1ccc(C(=O)NCc2ccccc2)cc1` [Compound 20, N-benzyl-4-(2-[4-(4-fluorophenyl)-1-piperazinyl]-4-methyl-7-oxopyrido[2,3-d]pyrimidin-8(7H)-yl)benzamide] gave an IC50 of 6.1 µM.

Compound `Cc1nc(NCC(C)C)nc2c1ccc(=O)n2-c1ccc(C(=O)Nc2ccccc2)cc1` [Compound 44, 4-(2-Isobutylamino-4-methyl-7-oxo-7H-pyrido[2,3-d]pyrimidin-8-yl)-N-phenyl-benzamide] showed a concentration for half-maximal inhibition (IC50) of 19.1 µM.

As for `Cc1nc(N2CCc3ccccc3C2)nc2c1ccc(=O)n2-c1ccc(C(=O)Nc2cccc(C#N)c2)cc1` [Compound 38, N-(3-cyanophenyl)-4-(2-(3,4-dihydro-2(1H)-isoquinolinyl)-4-methyl-7-oxopyrido[2,3-d]pyrimidin-8(7H)-yl)benzamide], inhibition was half-maximal at 1.6 µM (IC50).

`Cc1nc(N2CCc3ccccc3C2)nc2c1ccc(=O)n2-c1ccc(C(=O)NC2CC2)cc1` [Compound 33, N-cyclopropyl-4-(2-(3,4-dihydro-2(1H)-isoquinolinyl)-4-methyl-7-oxopyrido[2,3-d]pyrimidin-8(7H)-yl)benzamide] gave a 50% inhibitory concentration (IC50) of 1.1 µM.

`CCOC(=O)c1ccc(NC(=O)c2ccc(-n3c(=O)ccc4c(C)nc(N5CCc6ccccc6C5)nc43)cc2)cc1` [Compound 37, Ethyl 4-{[4-(2-(3,4-dihydro-2(1H)-isoquinolinyl)-4-methyl-7-oxopyrido[2,3-d]pyrimidin-8(7H)-yl)benzoyl]amino}benzoate] came in with an IC50 of 2.9 µM.

The compound `Cc1nc(N2CCN(c3ncccn3)CC2)nc2c1ccc(=O)n2-c1ccc(C(=O)NCc2ccco2)cc1` [Compound 28, N-(2-furylmethyl)-4-(4-methyl-7-oxo-2-[4-(2-pyrimidinyl)-1-piperazinyl]pyrido[2,3-d]pyrimidin-8(7H)-yl)benzamide] yielded a half-maximal inhibitory concentration (IC50) of 16.6 µM.

The compound `COc1ccc(CNC(=O)c2ccc(-n3c(=O)ccc4c(C)nc(N5CCN(c6ccccn6)CC5)nc43)cc2)cc1OC` [Compound 25, N-(3,4-dimethoxybenzyl)-4-(4-methyl-7-oxo-2-[4-(2-pyridinyl)-1-piperazinyl]pyrido[2,3-d]pyrimidin-8(7H)-yl)benzamide] showed a concentration for half-maximal inhibition (IC50) of 1.7 µM.

Turning to `CCOC(=O)c1ccc(Nc2nc(C)c3ccc(=O)n(-c4ccc(C(=O)OCC)cc4)c3n2)cc1` [Compound 42, Ethyl 4-({8-[4-(ethoxycarbonyl)phenyl]-4-methyl-7-oxo-7,8-dihydropyrido[2,3-d]pyrimidin-2-yl}amino)benzoate], the IC50 is 4.6 µM.

With `COC(=O)c1ccc(Nc2nc(C)c3ccc(=O)n(-c4ccc(C(=O)OC)cc4)c3n2)cc1` [Compound 41, methyl 4-({8-[4-(methoxycarbonyl)phenyl]-4-methyl-7-oxo-7,8-dihydropyrido[2,3-d]pyrimidin-2-yl}amino)benzoate], the concentration for half-maximal inhibition (IC50) turned out to be 3.1 µM.

On to `Cc1nc(N2CCN(c3ccc(F)cc3)CC2)nc2c1ccc(=O)n2-c1ccc(C(=O)NCc2ccco2)cc1` [Compound 21, 4-(2-[4-(4-fluorophenyl)-1-piperazinyl]-4-methyl-7-oxopyrido[2,3-d]pyrimidin-8(7H)-yl)-N-(2-furylmethyl)benzamide], for which the 50% inhibitory concentration (IC50) was 21.8 µM.

The compound `COc1ccc(NC(=O)c2ccc(-n3c(=O)ccc4c(C)nc(N5CCc6ccccc6C5)nc43)cc2)cc1OC` [Compound 34, 4-(2-(3,4-dihydro-2(1H)-isoquinolinyl)-4-methyl-7-oxopyrido[2,3-d]pyrimidin-8(7H)-yl)-N-(3,4-dimethoxyphenyl)benzamide] came in with an IC50 of 8.2 µM.

`Cc1nc(N2CCc3ccccc3C2)nc2c1ccc(=O)n2-c1ccc(C(=O)N(C)C)cc1` [Compound 35, 4-(2-(3,4-dihydro-2(1H)-isoquinolinyl)-4-methyl-7-oxopyrido[2,3-d]pyrimidin-8(7H)-yl)-N,N-dimethylbenzamide] came in with a half-inhibitory concentration (IC50) of 1.9 µM.

The compound `Cc1nc(N2CCc3ccccc3C2)nc2c1ccc(=O)n2-c1ccc(C(=O)NCC[N+]2([O-])CCOCC2)cc1` [Compound 45, 4-[2-(3,4-Dihydro-1H-isoquinolin-2-yl)-4-methyl-7-oxo-7H-pyrido[2,3-d]pyrimidin-8-yl]-N-[2-(4-oxy-morpholin-4-yl)-ethyl]-benzamide] had a half-inhibitory concentration (IC50) of 7.3 µM.

On to `Cc1nc(N2CCN(c3ncccn3)CC2)nc2c1ccc(=O)n2-c1ccc(C(=O)NCc2ccc(F)cc2F)cc1` [Compound 31, N-(2,4-difluorobenzyl)-4-(4-methyl-7-oxo-2-[4-(2-pyrimidinyl)-1-piperazinyl]pyrido[2,3-d]pyrimidin-8(7H)-yl)benzamide], for which half-maximal inhibition (IC50) was put at 9.4 µM.

The compound `CCCCCCCCNC(=O)c1ccc(-n2c(=O)ccc3c(C)nc(NCC(C)C)nc32)cc1` [Compound 43, 4-(2-Isobutylamino-4-methyl-7-oxo-7H-pyrido[2,3-d]pyrimidin-8-yl)-N-octyl-benzamide] registered an IC50 of 6.1 µM.

`COc1ccc(CNC(=O)c2ccc(-n3c(=O)ccc4c(C)nc(N5CCc6ccccc6C5)nc43)cc2)cc1OC` [Compound 36, 4-(2-(3,4-dihydro-2(1H)-isoquinolinyl)-4-methyl-7-oxopyrido[2,3-d]pyrimidin-8(7H)-yl)-N-(3,4-dimethoxybenzyl)benzamide] came in with a 50% inhibitory concentration (IC50) of 2 µM.

Turning to `Cc1nc(N2CCc3ccccc3C2)nc2c1ccc(=O)n2-c1ccc(C(=O)NCCC[N+](C)(C)[O-])cc1` [Compound 46, 4-(2-(3,4-dihydro-2(1H)-isoquinolinyl)-4-methyl-7-oxopyrido[2,3-d]pyrimidin-8(7H)-yl)-N-[3-(dimethylamino-N-oxido)propyl]benzamide], 2.6 µM corresponded to half-maximal inhibition (IC50).

The compound `Cc1nc(N2CCN(c3ncccn3)CC2)nc2c1ccc(=O)n2-c1ccc(C(=O)NCc2ccccc2)cc1` [Compound 27, N-benzyl-4-(4-methyl-7-oxo-2-[4-(2-pyrimidinyl)-1-piperazinyl]pyrido[2,3-d]pyrimidin-8(7H)-yl)benzamide] displayed an IC50 of 3.9 µM.

Compound `Cc1nc(N2CCN(c3ncccn3)CC2)nc2c1ccc(=O)n2-c1ccc(C(=O)NCc2cccnc2)cc1` [Compound 30, 4-(4-methyl-7-oxo-2-[4-(2-pyrimidinyl)-1-piperazinyl]pyrido[2,3-d]pyrimidin-8(7H)-yl)-N-(3-pyridinylmethyl)benzamide] gave an IC50 of 9.4 µM.
